Measured values: a melting point compilation (Tetko et al.)

SMILES | melting point [°C]
Cc1nc(-c2ccsc2)sc1C(=O)O | 235 to 237
Nc1cc(-c2cccc(C(F)(F)F)c2)no1 | 89 to 91
CC(NS(=O)(=O)c1ccc(N)cc1)C1CC2CCC1C2 (stereo unspecified) | 202 to 204
c1cc2[nH]nnc2cn1 | 240 to 242
Cc1nc(-c2cccs2)ccc1C(=O)O | 191 to 193
CC(=O)c1cc([N+](=O)[O-])ccc1C | 50 to 52
CSc1ccc(C#N)c(Cl)c1 | 117 to 119
O=S(=O)(Cl)c1ccc(N2CCCS2(=O)=O)cc1 | 184 to 186
Oc1cccc(-c2nnc3n2CCCCC3)c1 | 244 to 246
CCC(CC)C(N)=S | 55 to 57
Cc1ccc2sc(-c3ccc(CCl)cc3)nc2c1 | 149 to 151
O=C1CC2CCCc3cccc1c32 (stereo unspecified) | 95 to 97
Nc1ccccc1OCC(F)(F)F | 49 to 51
Cc1nc2ccnn2c(C)c1C(=O)O | 194 to 196
O=C(Nc1ccccn1)OCC(F)(F)F | 150 to 152
COC(=O)Nc1cccc(N)c1 | 62 to 64
O=C(O)C1(c2cccc(C(F)(F)F)c2)CCCC1 | 111 to 113
COc1cc(NC(C)=O)ccc1C(C)=O | 130 to 132
O=Cc1ccccc1OCC(F)(F)F | 51 to 53
CN(C)C1CCN(c2ccc(N)cc2)CC1 | 119 to 121
Nc1cc(Cl)ccc1S(N)(=O)=O | 142 to 144
Nc1sccc1C(=O)NC1CC1 | 144 to 146
CC1(C)Cc2cccc(OCC(=O)O)c2O1 | 111 to 113
NC(=O)CNCCC1CCCCC1 | 111 to 113
Cn1ccnc1-c1cc(N)[nH]n1 | 167 to 169

SMILES | melting point [°C]
CN(C(=O)c1ccc(N)cc1)C1CCOCC1 | 170 to 172
CC(C)n1ncc2cc(S(=O)(=O)Cl)ccc21 | 88 to 90
COC(=O)c1sc(N)c(C(=O)OC)c1CBr | 163 to 165
COC(=O)CNC(=O)CCCl | 59 to 61
COC(=O)C1CSCC(c2ccccc2)N1 (stereo unspecified) | 96 to 98
CC1NCCn2c(Cl)ccc21 (stereo unspecified) | 53 to 55
O=C(O)c1cc(N2CCOCC2)ccc1[N+](=O)[O-] | 188 to 192
O=C(O)c1cnoc1-c1cccs1 | 198 to 200
Nc1nc(CO)n[nH]1 | 193 to 195
Fc1cccc(F)c1-n1c(S)nc2ccccc21 | 255 to 257
Cc1cccc(N2CCN(CCN)CC2)c1C | 60 to 62
C=CCn1cc(C(=O)O)c2ccccc21 | 159 to 161
O=C(O)c1cnn(-c2ccccc2)c1 | 175 to 182
Oc1ccc2c(O)ccnc2c1 | 207 to 209
CC(CC(=N)N)NC(=O)OC(C)(C)C (stereo unspecified) | 91 to 93
CCOC(=O)c1nc(-c2ccccc2)oc1CBr | 94 to 96
CN(C)c1ccc([N+](=O)[O-])c(O)c1 | 140 to 142
O=C(O)c1ccc(CCC(F)(F)F)cc1 | 211 to 213
O=C(c1ccc(F)cc1)N1CCNCC1 | 74 to 76
CS(=O)Cc1c(C(=O)O)oc2ccccc12 (stereo unspecified) | 177 to 179
FC(F)(F)c1cccc(-c2ncc[nH]2)c1 | 151 to 153
Nc1ccn(-c2nccs2)n1 | 99 to 101
CC1(c2ccc(Br)cc2)NC(=O)NC1=O (stereo unspecified) | 262 to 264
CNS(=O)(=O)c1csc(C(=O)O)c1 | 170 to 172
O=c1c2cnn(-c3ccccc3)c2nnn1CCl | 179 to 181

SMILES | melting point [°C]
NC(=S)Cc1ccccc1 | 84 to 86
Cc1cccc(COc2ccccc2C(=O)O)c1 | 155 to 157
CC(C)(C)Oc1cccc(CCC(=O)O)n1 | 82 to 84
Cc1nn2c(CO)c(C(C)C)nc2s1 | 119 to 121
O=C(O)c1ccc(OCc2cscn2)cc1 | 191 to 193
Cc1cccc2c3c([nH]c12)C(N)CCC3 (stereo unspecified) | 130 to 132
N#CC(N)c1cnn(-c2ccccc2)c1 (stereo unspecified) | 98 to 100
COc1cc2c(cc1C(=O)CCl)C(=O)CO2 | 176 to 178
CCN(CC)S(=O)(=O)c1cccc(NC(=O)CCl)c1 | 82 to 84
COc1ccc2c(CO)cc(=O)oc2c1 | 177 to 179
Cc1nn(CCO)c2ncc(Br)cc12 | 110 to 112
O=C(O)C1CCCCN1Cc1ccc(F)cc1 (stereo unspecified) | 218 to 220
NCC(c1ccc(Cl)cc1Cl)c1c[nH]c2ccccc12 (stereo unspecified) | 130 to 132
C#CCNC(=O)NC1(C(=O)O)CCc2ccccc21 (stereo unspecified) | 181 to 183
Nc1cc(Cc2ccccc2)ccc1O | 136 to 138
Cc1ccc(Sc2ccc(Cl)cc2N)c(C)c1 | 86 to 88
O=C(O)c1cccnc1Oc1cccc(Br)c1 | 167 to 169
Cc1[nH]oc(=N)c1-c1cccc(Cl)c1 | 148 to 150
NC1CCN(C(=O)C2CCCCC2)CC1 | 78 to 80
O=C1CC(NC(=O)C(F)(F)F)c2ccccc21 (stereo unspecified) | 149 to 151
COCc1c(C(=O)O)oc2ccccc12 | 119 to 121
NNc1c([N+](=O)[O-])cc(C(F)(F)F)cc1[N+](=O)[O-] | 129 to 131
Brc1cnn(-c2ccncc2)c1 | 125 to 127
CC(C)CC(=O)Nc1ccc(Cl)c(C(=O)O)c1 | 174 to 176
NNc1nc2cc(Cl)ccc2s1 | 209 to 211

SMILES | melting point [°C]
O=S(=O)(Cl)Cc1cc(-c2ccc(F)cc2)no1 | 108 to 110
CNC(=O)NC(=O)C(C)Cl (stereo unspecified) | 118 to 120
Cc1[nH]c2ccccc2c1-c1csc(N)n1 | 168 to 170
Cc1cc(C)cc(-n2ncc(C=O)n2)c1 | 64 to 66
Cc1cccc(NC2=NC(=O)CS2)c1 | 160 to 162
CN1C(=O)C(=O)c2ccc(F)cc21 | 137 to 139
O/N=C(/Cc1nc2ccccc2[nH]1)c1cccs1 | 207 to 209
Cc1cc(N)n(CCO)n1 | 48 to 52
Cc1nc(Cl)c2c3c(sc2n1)CCCCC3 | 43 to 47
CC(NCc1ccc(F)cc1)C(=O)O (stereo unspecified) | 283 to 285
COc1ccccc1C(N)c1nccn1C (stereo unspecified) | 78 to 80
Cn1c(=O)[nH]c2ccc(C(=O)O)cc21 | 366 to 368
Nc1ccc(-c2cn3c(n2)CCCC3)cc1 | 209 to 211
CC(=O)Nc1cccc(CCl)c1 | 83 to 85
Cc1nc(Cl)ccc1C(=O)O | 149 to 151
CCC(=CC(=O)O)c1ccc(C)cc1 | 116 to 118
CSc1ccccc1CC(=O)O | 115 to 117
Cc1cc(F)ccc1N1CCCC(Br)C1=O (stereo unspecified) | 94 to 96
Nc1nnc(CO)s1 | 169 to 171
COc1ccc2nc(Sc3ncccc3C(=O)O)[nH]c2c1 | 219 to 221
COc1ccc(C(=O)Cc2ccc(F)cc2)cc1 | 106 to 108
O=Cc1cccc(OCc2occc2C(=O)O)c1 | 123 to 125
NC(=O)c1cnn(-c2ccccc2)c1N | 167 to 170
Cc1ccc(NC(=O)C(C)Cl)c(F)c1 (stereo unspecified) | 105 to 107
Cc1cccc(-n2nnnc2S)c1 | 156 to 158

SMILES | melting point [°C]
NNC(=O)CNc1ccccc1 | 126 to 128
COc1cc(CN)ccc1OC(C)(C)C | 52 to 54
Cc1cc(NC(=O)Nc2cc(C)nn2C)n(C)n1 | 209 to 211
Cc1ccc(Cl)nc1CC(=O)O | 120 to 122
O=C(O)c1cc(S(=O)(=O)Cl)ccc1F | 107 to 109
O=C(O)Cc1ccc(S(=O)(=O)CC(F)(F)F)cc1 | 142 to 144
O=C(O)CN1C(=O)CCCc2ccccc21 | 141 to 143
CCCCC1NCCNC1=O (stereo unspecified) | 67 to 69
CCOc1ccccc1-c1csc(N)n1 | 209 to 211
O=C(O)c1ccccc1OCc1ccc(Cl)cc1Cl | 162 to 164
NCCc1cc2ccccc2[nH]1 | 95 to 97
O=C(O)C(=O)c1ccc(Br)cc1 | 105 to 107
CSC(C(=O)O)c1ccccc1 (stereo unspecified) | 75 to 77
CC1(c2ccc(F)cc2)NC(=O)NC1=O (stereo unspecified) | 204 to 206
CC(C)(C)OC(=O)N1CCC(C(=O)NN)CC1 | 98 to 100
CNC1CCN(c2ccc(Cl)cc2)CC1 | 49 to 51
CC(=O)c1cncnc1 | 63 to 65
Cn1cc(S(=O)(=O)N2CCCC2)cc1C(=O)O | 219 to 221
COC(=O)CCOc1ccc(Cl)cc1Cl | 35 to 37
COc1ccc(-c2cc(C(=O)O)[nH]n2)cc1 | 209 to 211
CC(C)(C)OC(=O)N1CCN(CCS(N)(=O)=O)CC1 | 138 to 140
CC(=O)c1ccc(N2CCCC2)cc1O | 120 to 122
NC(=O)Nc1ccc2c(c1)OCCO2 | 159 to 161
COc1ccc(/C=C/C(=O)O)cc1S(N)(=O)=O | 257 to 259
CC1=NS(=O)(=O)NC(C)=C1CCC(=O)O | 162 to 164

SMILES | melting point [°C]
N#CCNc1cccc(F)c1 | 39 to 41
O=C(O)c1cc2c([nH]c1=O)CCC2 | 273 to 275
Cc1ccc(NC(=O)C(C)C)cc1N | 160 to 162
Cc1cccc(NC(=O)N2CCC(C(=O)O)CC2)c1 | 189 to 191
O=Cc1ccc(OCC(=O)c2ccccc2)cc1 | 115 to 119
O=C(O)Cc1ccc(C(F)F)cc1 | 76 to 78
O=C(O)c1ccc(S(=O)(=O)Cl)s1 | 119 to 121
c1coc(-c2nc(C3CCCCC3)n[nH]2)c1 | 147 to 149
NC(=O)C1CCCC1 | 173 to 175
CNC(=O)CCCl | 63 to 65
CN1CCN(S(=O)(=O)c2ccc(C(=O)NN)cc2)CC1 | 170 to 172
CS(=O)(=O)c1cccc(NN)c1 | 93 to 95
c1ccc(Nc2nc3ccccc3s2)cc1 | 139 to 141
O=S(=O)(O)c1nc2ccc(Cl)cc2[nH]1 | 329 to 331
CC(C)(C)NS(=O)(=O)c1ccccc1NN | 122 to 124
O=C(O)c1c(O)cc(Cl)cc1Cl | 189 to 191
O=C(c1cnc(Cl)c(Cl)c1)N1CCCCC1 | 78 to 80
Cc1c[nH]c(=O)n1-c1ccc(Cl)cc1 | 185 to 187
CON(C)S(=O)(=O)c1cc(N)ccc1Cl | 88 to 90
CC1CC(C)CN(S(=O)(=O)c2ccc(C(=O)O)cc2)C1 (stereo unspecified) | 275 to 277
Cc1cccc2c1CN(C(=O)OC(C)(C)C)CCN2 | 95 to 97
